Point of comparison: `CCCC1CC1(C(=O)Nc1ccc(Br)cc1C)C(=O)OC` (centres undefined), melting point 60 °C. Against it:
- CC(C)Cn1c(=O)[nH]c(=O)c2nc(-c3ccc(/C=C/C(=O)O)cc3)[nH]c21 — higher, > 300 °C
- Cc1ccccc1NC(=O)NC1N=C(c2ccccc2F)c2ccccc2N(CC(=O)N2CC3CCC(CC3)C2)C1=O (racemic) — higher, 167 to 172 °C
- O=Cc1ccc(Br)cc1C=O — higher, 97 to 100 °C
- Cn1c(-c2ccccc2)c(CCCl)sc1=S — higher, 116 °C
- Cc1cc(C)cc(SN2C(=O)CCC2=O)c1 — higher, 131 to 134 °C
- CC(C)(C(=O)O)c1ccc(C(=O)Nc2cn3c4c(ccc3n2)OCC4)cc1 — higher, 293 to 295 °C
- O=c1[nH]c(-c2c(F)cccc2F)nn1-c1ccccc1C(F)(F)F — higher, 259 to 260 °C
- Cn1ccnc1Sc1ccc(Nc2c(C#N)cnc3cc(/C=C/CN4CCOCC4)ccc23)cc1Cl — higher, 235 to 240 °C
- O=c1c(-c2cccc(C(F)(F)F)c2F)nn(Cc2ccc(F)cc2F)c2cc(Cl)ccc12 — higher, 118 to 120 °C
- CCCCOc1ccc(S(=O)(=O)N2CC(N(Cc3ccccc3)CC(O)COc3cccc4[nH]c5ccccc5c34)C2)cc1 (centres undefined) — higher, 65 to 67 °C
- CCCC(=O)NC[C@@H]1CN(c2nc3c(cc2F)c(=O)c(C(=O)OCC)cn3C2CC2)C[C@H]1F (relative stereo) — higher, 105 to 107 °C
- CS(=O)(=O)Nc1cc2occ(Nc3ccccc3)c(=O)c2cc1Oc1ccccc1 — higher, 212 to 213 °C
- CC1CC(=O)c2cc(Cl)cc(Cl)c2O1 (centres undefined) — higher, 98 to 102 °C
- CCn1cc2c3c(cccc31)CN(C(=O)OCc1ccccc1)C2 — higher, 112 to 114 °C
- CN(C)CCOc1ccc2sc(C(=O)Nc3ccccc3N)cc2c1 — higher, 191 to 193 °C
- CC(=O)OCC1OC(n2c(=O)sc3c(=O)[nH]c(N)nc32)C(OC(C)=O)C1OC(C)=O (centres undefined) — higher, 198 to 199 °C
- CC(C)(C)NCC(O)COc1ccc2c(=O)cc(-c3ccc(O)c(O)c3)oc2c1 (centres undefined) — higher, 165 °C
- O=C1Nc2ccc(Cl)cc2C1(O)c1ccccc1OC(F)(F)F (centres undefined) — higher, 214 °C
- CC(C)OC(=O)c1cc(-n2c(=O)c3c(n(C)c2=O)CCC3)c(F)cc1Br — higher, 116 to 120 °C
- COc1ccnnc1NS(=O)(=O)c1cccc(Cl)c1Cl — higher, 210 to 211 °C
- O=C1CCC(=O)N1CCCCCNC(=O)n1cc(F)c(=O)[nH]c1=O — higher, 142 °C
- CC1=C(c2ccccc2)C(=O)N(C(C)(C)C(=O)c2cc(F)cc(F)c2)CO1 — higher, 157 to 158 °C
- COC(=O)C(C)Oc1c(C#N)cnn1-c1ccc(C(F)(F)F)cc1Cl (centres undefined) — higher, 82 to 85 °C
- COc1ccc(C=Cc2nnc(C(F)(F)F)o2)cc1 — higher, 117 to 118 °C
- Cc1cc(NCCO)c2nn(C)c(C)c2n1 — higher, 186 to 189 °C
- Cc1cccc(CC2CNC(=O)O2)c1 (centres undefined) — higher, 89 to 90.5 °C
- CCc1nc2c(N)nc3cc(OCc4cccc(Cl)n4)ccc3c2s1 — higher, 229 to 230 °C
- COc1cc(N2CCN(Cc3ccc(CNC(C)=O)cc3)CC2)nc(OC)n1 — higher, 89 to 90 °C
- COC(=O)c1[nH]c2cccc3c2c1CCNC3=O — higher, 266 to 267 °C
- COc1ccc(C(O)(Cc2ccncc2)c2cccs2)cc1OC1CCCC1 (centres undefined) — not separable, 57 to 67 °C
- COC(=O)c1ccc(/C=C/Cc2cc3c(cc2C)CCC(C)(C)CC3)cc1 — not separable, 59 to 60 °C
- Cc1nc2ccc(C(=O)O)nc2n1Cc1ccc(-c2ccccc2)cc1 — higher, > 250 °C
- Nc1ncc2cc(-c3ccccc3)c(O)nc2n1 — higher, 390 to 395 °C
- Cc1ccc(O)c(-c2csc(N(C)C)n2)c1 — higher, 108 to 110 °C
- CC(=O)Nc1nc2c(s1)C(=O)CCC2 — higher, 268 to 272 °C
- CC(CCCNc1ccccc1)C1CC=C2C3=C(CCC21C)C1(C)CCC(O)C(C)(C)C1CC3 (centres undefined) — higher, 178 to 180 °C
- O=C(Nc1cccnc1)N1CCN(c2ccnc(-c3cccc(F)c3F)n2)CC1 — higher, 208 to 209 °C
- Cn1cnnc1C(N)(c1ccc(Cl)cc1)c1ccc2c(c1)c(-c1cccc(Cl)c1)cc(=O)n2C (centres undefined) — higher, 210 °C
- Cc1c(NC(=O)c2ccc(-c3ccc4c(c3)CCCO4)cc2)ccc2cc(CN3CCCC3)cnc12 — higher, 195 to 197 °C
- FC(F)c1cc(-c2cccc(C(F)(F)F)c2)nc2ccnn12 — higher, 127 °C
- CCc1nc2c(cnn2CC)c(NC2CCOCC2)c1CNC(=O)c1cccc(C(=O)O)c1 — higher, 207 to 209 °C
- COC(=O)C1=C(C)Nc2c(c(-c3ccccc3)nn2C)C1c1ccc(F)cc1 (centres undefined) — higher, 181 to 183 °C
- O=C(c1ncco1)c1ccc([N+](=O)[O-])cc1Cl — higher, 124 to 125 °C
- O=c1[nH]nc2c3cccc(Cl)c3[nH]c(=O)n12 — higher, 348 to 350 °C
- CCC1(C=O)CSc2ccccc2C(c2ccccc2)=N1 (racemic) — higher, 98 to 100 °C
- CCCCCCCCCCCCSc1nnn(C(C(=O)O)c2ccccc2)n1 (centres undefined) — higher, 64 to 67 °C
- COc1ccc(-c2nc3ncccc3[nH]2)c2cc(C(C)C)oc12 — higher, 242 °C
- CCCCC[C@H]1CC[C@H](CCCCc2ccc(O)cc2)CC1 — higher, 86 °C
- COC1CC(N)(C(=O)O)C2C(C(=O)O)C12 (centres undefined) — higher, > 275 °C
- Cc1c(S(=O)(=O)Nc2ccc(-c3ncco3)cc2S(C)(=O)=O)sc2ccc(F)cc12 — higher, 207 to 208 °C
- O=S1(=O)CCC(=NO)C1=NO — higher, 181 °C
- CCN(CC)CCNC(=O)c1ccc(Nc2nccc(-c3cccnc3)n2)cc1 — higher, 148 to 150 °C
- N#Cc1ccc(-c2ccc(C(=O)O)nc2)cc1 — higher, > 260 °C
- CCOC(=O)Cc1csc(NC(N)=O)n1 — higher, 173 to 174 °C
- CCCS(=O)(=O)Oc1c(C(=O)c2ccc3c(c2C)C(SCC)CCS3(=O)=O)cnn1CC (centres undefined) — higher, 140 to 145 °C
- COc1cc2c(cc1OC)C(c1ccccc1)N(C(=O)NCCN(C(C)C)C(C)C)CC2 (centres undefined) — higher, 109 to 110 °C
- Cc1ccc(C2CCN(C(=O)CCC(=O)c3ccc4c(c3)CN(C)CC4)CC2)cc1 — higher, 97 to 99 °C
- COc1ccc2c(C(=O)C(F)(F)F)c[nH]c2c1 — higher, 206 to 208 °C
- CCCC12CCC3=C(CCc4cc(OC)ccc43)C1CCC21OCCO1 (centres undefined) — higher, 119 to 120 °C
- CC(CC(=O)Nc1c(Cl)ccc2nc(N3CCNCC3)ccc12)c1ccccc1 (centres undefined) — higher, 194 to 196 °C
- c1ccc(Pc2ccccc2)cc1 — higher, 128 to 131 °C
- COc1cc2nc(N3CCN(c4ccc(Cl)nn4)CC3)nc(N)c2cc1OC — higher, 269 to 270 °C
- Cc1[nH]c(-c2ccccc2)nc1-c1ccc(Cl)c(Cl)c1 — higher, 169 to 171 °C
- O=C(Cn1c(Cl)ccc1Cl)N=C1NCCN1 — higher, 225 °C
- COc1cccc2c(=O)[nH]c(C3CCN(C)CC3)cc12 — higher, 239 to 242 °C
- CCNC(=O)c1cc(N)ccc1[Si](C)(C)C — higher, 143 to 145 °C
- Cc1ncc2c(c1OCC(=O)O)COC2c1ccc(Cl)cc1 (centres undefined) — higher, 226 to 230 °C
- NC(=N[N+](=O)[O-])NCCC[C@@H](NC(=O)C(c1ccccc1)c1ccccc1)C(=O)NCc1ccc(COC(=O)Oc2ccccc2)cc1 — higher, 186 to 187 °C
- OC1c2ccccc2-c2[nH]nc(-c3ccccc3)c21 (centres undefined) — higher, 269 to 272 °C
- COc1cccc(CC(CO)NCCC(c2ccccc2)c2ccccc2)c1 (centres undefined) — higher, 89 to 91 °C
- Nc1cc(NC(=O)c2ccccc2)ccn1 — higher, 187 to 188 °C
- CCOC(=O)C(OC)C(=O)Nc1cccc(Cl)c1 (centres undefined) — lower, 43.5 to 46.5 °C
- COc1ccc2c(c1)OCC(Cc1cccnc1)C2=O (centres undefined) — higher, 95 to 99 °C
- Cc1nc2c(OCc3c(Cl)ccc([N+](=O)[O-])c3Cl)cccn2c1Br — higher, 217 to 219 °C
- Cc1cc(=O)n2nc(S(=O)(=O)Cc3ccc(Cl)cc3)sc2n1 — higher, 192 to 194 °C
- O=C1NC(=S)NC(=O)C1=Cc1c[nH]c2ccccc12 — higher, 320 °C
- COc1ccc(Cc2cc(S)ccc2OC)cc1 — higher, 78 °C
- CCOC(=O)Nc1nc(=O)n(CC2CC2)cc1F — higher, 90 to 92 °C
- CCOC(=O)c1ccc(CN2CCC(NC(=O)OC(C)(C)C)CC2)cc1 — higher, 74 to 76 °C
- CCOC(=O)c1cnc2cc(Cl)ccc2c1N=[N+]=[N-] — higher, 94.5 °C
- Cn1c(=O)n(O)c(=O)c2cc(F)c(N3CCCC3)cc21 — higher, > 250 °C
- COC(=O)C1CC(=O)C(N=Nc2ccccc2)=C(O)C1 (centres undefined) — higher, 117 to 118 °C
- Cc1ccc(S(=O)(=O)N2[C@@H](CCl)CC[C@H]2c2ccc(F)cc2)cc1 (racemic) — higher, 130 °C
- COC(=O)CNC(C)=S — higher, 78 to 79 °C
- Cc1ccc(Nc2nc(-c3ccccc3)cs2)nc1 — higher, 260 to 264 °C
- CN(C)c1ccc2nnc(C(=O)O)c(O)c2c1 — higher, > 330 °C
- Cc1cnc(C2=NC(C)(C(C)C)C(=O)N2)c(C(O)c2ccc(C)s2)c1 (centres undefined) — higher, 147 to 148 °C
- O=C1N=c2ccccc2=N1 — higher, 138 to 140 °C
- Cc1ccc2cc(C)[nH]c2c1 — higher, 74 to 76 °C
- Cn1cnc(COc2nn3c(-c4ccccc4)nnc3cc2-c2ccc(Cl)s2)n1 — higher, 248 to 250 °C
- Clc1cc(Cl)cc(-c2cc[nH]n2)c1 — higher, 156 °C
- CCOC(=O)N1CCN(C2=Nc3ccccc3Sc3ccc(Cl)cc32)CC1 — higher, 96.5 to 97.5 °C
- Cn1c(=O)c(-c2ccc(Cl)cc2Cl)cc2c3cc(-c4nc(CC(=O)O)cs4)ccc3n(C)c21 — higher, 234 to 239 °C
- C[Si](C)(C)OC1(C#N)CCOc2c(Cl)cc(-c3ccccc3)cc21 (centres undefined) — higher, 99 to 100 °C
- Cn1ncc(N2CCNCC2)c(Cl)c1=O — higher, 83 to 87 °C
- CCNC(=O)c1c(C(F)(F)F)cccc1[Si](C)(C)C — higher, 134 to 135 °C
- CC(C)(C)OC(=O)N[C@H]1CN(Cc2ccccc2)[C@@H]2CCCO[C@H]12 (relative stereo) — higher, 82 to 84 °C
- O=C(CCl)Nc1ccc(Cl)cc1C(=O)c1ccccc1 — higher, 119 to 120 °C
- CCOCc1nc2c(N)nc3cc(-c4ccccc4)cnc3c2n1CCCONC(C)C — higher, 142 to 144 °C
- CCc1ccccc1NC=C1C(=O)N(c2cccc(C#N)c2)N=C1C — higher, 211 °C
- Cc1cccc(C(=O)Nc2cn(C3CCCCO3)nc2C(=O)NCCC#N)n1 (centres undefined) — higher, 186 to 187 °C
- OCCCc1nc(COc2ccc(CCCn3ccnc3)cc2)co1 — higher, 63 to 64 °C
- CCCCc1nc(C(O)C(C)(C)C)c(C(N)=O)n1Cc1ccc(-c2ccccc2-c2nnn[nH]2)cc1 (centres undefined) — higher, 157 to 160 °C

From a melting point compilation (Tetko et al.; mined from patent text by program, amines drawn as free bases though some values may be those of a salt)
